Assays:
A431 (skin carcinoma) = test: MTT in vitro growth inhibition assay, A431; type: cell-based; conditions: Homo sapiens; for inhibition at 25 µM: A-431, 25 µM of drug, 72 h, read-out: Percentage of Cell Growth Inhibition A431; for GI50: A-431, 72 h, 72 h drug exposure
Source text: (§1) With the desired bolinaquinone analogues 12–43 in hand, we examined their cytotoxicity against a panel of 11 tumour cell lines: HT29 (colon carcinoma), U87 and SJ-G2 (glioblastoma), MCF-7 (breast carcinoma), A2780 (ovarian carcinoma), H460 (lung carcinoma), A431 (skin carcinoma), Du145 (prostate carcinoma), BE2-C (neuroblastoma), MIA (pancreatic carcinoma), SMA (spontaneous murine astrocytoma) and a normal breast cell line (MCF10A). The inclusion of the MCF-10A cell line allowed a determination of a crude measure of relative toxicity while noting that the ultimate arbiter of toxicity requires in vivo evaluation. All analogues were initially screened at a 25 µM drug concentration.
(§2) Stock solutions were prepared as follows and stored at −20°C: drugs were stored as 40 mM solutions in DMSO. All cell lines were cultured in a humidified atmosphere 5% CO2 at 37°C. The cancer cell lines were maintained in Dulbecco's modified Eagle's medium (DMEM) (Trace Biosciences, Australia) supplemented with 10% fetal bovine serum, 10 mM sodium bicarbonate, penicillin (100 IU ml^−1), streptomycin (100 µg ml^−1) and glutamine (4 mM). The non-cancer MCF10A cell line was cultured in DMEM:F12 (1 : 1) cell culture media, 5% heat-inactivated horse serum, supplemented with penicillin (50 IU ml^−1), streptomycin (50 µg ml^−1), 20 mM Hepes, L-glutamine (2 mM), epidermal growth factor (20 ng ml^−1), hydrocortisone (500 ng ml^−1), cholera toxin (100 ng ml^−1) and insulin (10 ug ml^−1).
(§3) Cells in logarithmic growth were transferred to 96-well plates. Cytotoxicity was determined by plating cells in duplicate in 100 µl medium at a density of 2500–4000 cells per well. On day 0 (24 h after plating), when the cells were in logarithmic growth, 100 μl of medium with or without the test agent was added to each well. After 72 h, drug exposure growth inhibitory effects were evaluated using the MTT (3-[4,5-dimethylthiazol-2-yl]-2,5-diphenyl-tetrazolium bromide) assay and the absorbance read at 540 nm. Percentage growth inhibition was determined at a fixed drug concentration of 25 µM. A value of 100% is indicative of complete cell growth inhibition. Those analogues showing appreciable percentage growth inhibition underwent further dose–response analysis allowing for the calculation of a GI50 value. This value is the drug concentration at which cell growth is 50% inhibited based on the difference between the optical density values on day 0 and those at the end of drug exposure.

HT29 (colon carcinoma) = test: MTT in vitro growth inhibition assay, HT29; type: cell-based; conditions: Homo sapiens; for inhibition at 25 µM: HT-29, 25 µM of drug, 72 h, read-out: Percentage of Cell Growth Inhibition HT29; for GI50: HT-29, 72 h drug exposure
Source text: as §1, §2, §3

[1] = tested on: Du145 (prostate carcinoma); test: MTT in vitro growth inhibition assay, Du145; type: cell-based; conditions: Homo sapiens; for inhibition at 25 µM: DU-145, 25 µM of drug, 72 h, read-out: Percentage of Cell Growth Inhibition Du145; for GI50: DU-145, 72 h, 72 h drug exposure
Source text: as §1, §2, §3

MCF-7 (breast carcinoma) = test: MTT in vitro growth inhibition assay, MCF-7; type: cell-based; conditions: Homo sapiens; for inhibition at 25 µM: MCF7, 25 µM of drug, 72 h, read-out: Percentage of Cell Growth Inhibition MCF-7; for GI50: MCF7, 72 h drug exposure
Source text: as §1, §2, §3

[2] = tested on: A2780 (ovarian carcinoma); test: MTT in vitro growth inhibition assay, A2780; type: cell-based; conditions: Homo sapiens; for inhibition at 25 µM: 25 µM of drug, 72 h, read-out: Percentage of Cell Growth Inhibition A2780; for GI50: 72 h drug exposure
Source text: as §1, §2, §3

[3] = tested on: SMA (spontaneous murine astrocytoma); test: MTT in vitro growth inhibition assay, SMA; type: cell-based; conditions: Mus musculus; for inhibition at 25 µM: 25 µM of drug, 72 h, read-out: Percentage of Cell Growth Inhibition SMA; for GI50: 72 h drug exposure
Source text: as §1, §2, §3

[4] = tested on: MCF10A (normal breast cell line); test: MTT in vitro growth inhibition assay, MCF10A; type: cell-based; conditions: Homo sapiens, MCF-10A; for inhibition at 25 µM: 25 µM of drug, 72 h, read-out: Percentage of Cell Growth Inhibition MCF10A; for GI50: normal breast cell line, 72 h drug exposure
Source text: as §1, §2, §3

SJ-G2 (glioblastoma) = test: MTT in vitro growth inhibition assay, SJ-G2; type: cell-based; conditions: for inhibition at 25 µM: 25 µM of drug, 72 h, read-out: Percentage of Cell Growth Inhibition SJ-G2; for GI50: 72 h drug exposure
Source text: as §1, §2, §3

[5] = tested on: MIA (pancreatic carcinoma); test: MTT in vitro growth inhibition assay, MIA; type: cell-based; conditions: for inhibition at 25 µM: 25 µM of drug, 72 h, read-out: Percentage of Cell Growth Inhibition MIA; for GI50: 72 h drug exposure
Source text: as §1, §2, §3

BE2-C (neuroblastoma) = test: MTT in vitro growth inhibition assay, BE2-C; type: cell-based; conditions: Homo sapiens, BE(2)-C, 72 h; for inhibition at 25 µM: 25 µM of drug, read-out: Percentage of Cell Growth Inhibition BE2-C; for GI50: 72 h drug exposure
Source text: as §1, §2, §3

U87 (glioblastoma) = test: MTT in vitro growth inhibition assay, U87; type: cell-based; conditions: for inhibition at 25 µM: 25 µM of drug, 72 h, read-out: Percentage of Cell Growth Inhibition U87; for GI50: 72 h drug exposure
Source text: as §1, §2, §3

H460 (lung carcinoma) = test: MTT in vitro growth inhibition assay, H460; type: cell-based; conditions: Homo sapiens; for inhibition at 25 µM: NCI-H460, 25 µM of drug, 72 h, read-out: Percentage of Cell Growth Inhibition H460; for GI50: NCI-H460, 72 h drug exposure
Source text: as §1, §2, §3

COC1=C(c2ccc3ccccc3c2)C(=O)C(OC)=C(c2ccccc2-c2ccccc2)C1=O [compound 36, 2,5-Dimethoxy-3-(biaryl-2-yl)-6-(naphthalene-3-yl)cyclohexa-2,5-diene-1,4-dione]
inhibition at 25 µM (A431 (skin carcinoma)): 78 ± 2% | GI50 (A431 (skin carcinoma)): 15 ± 1.5 µM | inhibition at 25 µM (HT29 (colon carcinoma)): > 100% | GI50 (HT29 (colon carcinoma)): 11 ± 0.9 µM | inhibition at 25 µM [1]: 51 ± 3% | GI50 [1]: 21 ± 0.2 µM | inhibition at 25 µM (MCF-7 (breast carcinoma)): > 100% | GI50 (MCF-7 (breast carcinoma)): 5.1 ± 0.5 µM | melting point: 113 to 115 °C | inhibition at 25 µM [2]: 87 ± 2% | GI50 [2]: 9 ± 0.6 µM | inhibition at 25 µM [3]: 84 ± 7% | GI50 [3]: 10 ± 0.3 µM | inhibition at 25 µM [4]: 77 ± 4% | GI50 [4]: 15 ± 2.2 µM | inhibition at 25 µM (SJ-G2 (glioblastoma)): 78 ± 5% | GI50 (SJ-G2 (glioblastoma)): 13 ± 1.5 µM | inhibition at 25 µM [5]: 78 ± 2% | GI50 [5]: 12 ± 0.7 µM | inhibition at 25 µM (BE2-C (neuroblastoma)): > 100% | GI50 (BE2-C (neuroblastoma)): 8.7 ± 0.7 µM | inhibition at 25 µM (U87 (glioblastoma)): 57 ± 2% | GI50 (U87 (glioblastoma)): 20 ± 0.9 µM | inhibition at 25 µM (H460 (lung carcinoma)): 65 ± 3% | GI50 (H460 (lung carcinoma)): 18 ± 2.3 µM

COC1=C(c2ccccc2)C(=O)C(OC)=C(c2cccc3ccccc23)C1=O [compound 32, 2,5-Dimethoxy-3-(naphthalen-1-yl)-6-phenylcyclohexa-2,5-diene-1,4-dione]
inhibition at 25 µM (A431 (skin carcinoma)): 17 ± 2% | inhibition at 25 µM (HT29 (colon carcinoma)): 15 ± 4% | inhibition at 25 µM [1]: 18 ± 4% | inhibition at 25 µM (MCF-7 (breast carcinoma)): 22 ± 2% | melting point: 168 to 170 °C | inhibition at 25 µM [2]: 60 ± 17% | inhibition at 25 µM [3]: 58 ± 13% | inhibition at 25 µM [4]: 58 ± 15% | inhibition at 25 µM (SJ-G2 (glioblastoma)): 19 ± 3% | inhibition at 25 µM [5]: 13 ± 1% | inhibition at 25 µM (BE2-C (neuroblastoma)): 27 ± 15% | inhibition at 25 µM (U87 (glioblastoma)): 19 ± 2% | inhibition at 25 µM (H460 (lung carcinoma)): 20 ± 8%

COC1=C(c2cccc(-c3ccccc3)c2)C(=O)C(OC)=C(c2ccc3ccccc3c2)C1=O [compound 37, 2,5-Dimethoxy-3-(biaryl-3-yl)-6-(naphthalene-3-yl)cyclohexa-2,5-diene-1,4-dione]
inhibition at 25 µM (A431 (skin carcinoma)): > 100% | GI50 (A431 (skin carcinoma)): 6 ± 0.9 µM | inhibition at 25 µM (HT29 (colon carcinoma)): > 100% | GI50 (HT29 (colon carcinoma)): 5.4 ± 0.4 µM | inhibition at 25 µM [1]: > 100% | GI50 [1]: 9.8 ± 0.7 µM | inhibition at 25 µM (MCF-7 (breast carcinoma)): 88 ± 4% | GI50 (MCF-7 (breast carcinoma)): 10 ± 2.6 µM | melting point: 119 to 121 °C | inhibition at 25 µM [2]: 76 ± 3% | GI50 [2]: 11 ± 0.9 µM | inhibition at 25 µM [3]: 85 ± 3% | GI50 [3]: 13 ± 1 µM | inhibition at 25 µM [4]: > 100% | GI50 [4]: 11 ± 1.3 µM | inhibition at 25 µM (SJ-G2 (glioblastoma)): > 100% | GI50 (SJ-G2 (glioblastoma)): 9.3 ± 1.2 µM | inhibition at 25 µM [5]: 91 ± 2% | GI50 [5]: 8.3 ± 1 µM | inhibition at 25 µM (BE2-C (neuroblastoma)): > 100% | GI50 (BE2-C (neuroblastoma)): 6.7 ± 0.3 µM | inhibition at 25 µM (U87 (glioblastoma)): 74 ± 3% | GI50 (U87 (glioblastoma)): 14 ± 1 µM | inhibition at 25 µM (H460 (lung carcinoma)): 95 ± 1% | GI50 (H460 (lung carcinoma)): 11 ± 0.3 µM

CCCCc1ccc(C2=C(OC)C(=O)C(c3ccc(CCCC)cc3)=C(OC)C2=O)cc1 [compound 31, 2,5-Bis(4-butylphenyl)-3,6-dimethoxycyclohexa-2,5-diene-1,4-dione]
inhibition at 25 µM (A431 (skin carcinoma)): 75 ± 2% | inhibition at 25 µM (HT29 (colon carcinoma)): 73 ± 3% | inhibition at 25 µM [1]: 83 ± 2% | inhibition at 25 µM (MCF-7 (breast carcinoma)): 73 ± 5% | melting point: 177 to 179 °C | inhibition at 25 µM [2]: 55 ± 9% | inhibition at 25 µM [3]: 54 ± 4% | inhibition at 25 µM [4]: 66 ± 2% | inhibition at 25 µM (SJ-G2 (glioblastoma)): 56 ± 6% | inhibition at 25 µM [5]: 72 ± 2% | inhibition at 25 µM (BE2-C (neuroblastoma)): 68 ± 3% | inhibition at 25 µM (U87 (glioblastoma)): 53 ± 3% | inhibition at 25 µM (H460 (lung carcinoma)): 52 ± 9%

Source: PMC5936891, “A focused library synthesis and cytotoxicity of quinones derived from the natural product bolinaquinone” (Royal Society Open Science, 2018)
